Source: patent US10669272B2, “Substituted naphthyridinone compounds useful as T cell activators” (BRISTOL-MYERS SQUIBB COMPANY, priority 2018, dated 2020)
Where two headings read alike, the source gives them in different places.

Columns and labels:
human DGKα = molecular target: T1, human DGKα (Homo sapiens, UniProt P23743); experiment: DGKα LIPGLO assay (extruded liposome substrate), in vitro DGK inhibition; format: biochemical; conditions: DGKα liposome (LIPGLO) assay; read-out: DGKa LIPGLO IC50
T1 construct: TVMV protease cleavage site (C); Hexa-His (C); made in house; host or cells: Sf9 insect cells (baculovirus, Bac-to-Bac)
T1 sequence (P23743 with tags, fused parts or gaps): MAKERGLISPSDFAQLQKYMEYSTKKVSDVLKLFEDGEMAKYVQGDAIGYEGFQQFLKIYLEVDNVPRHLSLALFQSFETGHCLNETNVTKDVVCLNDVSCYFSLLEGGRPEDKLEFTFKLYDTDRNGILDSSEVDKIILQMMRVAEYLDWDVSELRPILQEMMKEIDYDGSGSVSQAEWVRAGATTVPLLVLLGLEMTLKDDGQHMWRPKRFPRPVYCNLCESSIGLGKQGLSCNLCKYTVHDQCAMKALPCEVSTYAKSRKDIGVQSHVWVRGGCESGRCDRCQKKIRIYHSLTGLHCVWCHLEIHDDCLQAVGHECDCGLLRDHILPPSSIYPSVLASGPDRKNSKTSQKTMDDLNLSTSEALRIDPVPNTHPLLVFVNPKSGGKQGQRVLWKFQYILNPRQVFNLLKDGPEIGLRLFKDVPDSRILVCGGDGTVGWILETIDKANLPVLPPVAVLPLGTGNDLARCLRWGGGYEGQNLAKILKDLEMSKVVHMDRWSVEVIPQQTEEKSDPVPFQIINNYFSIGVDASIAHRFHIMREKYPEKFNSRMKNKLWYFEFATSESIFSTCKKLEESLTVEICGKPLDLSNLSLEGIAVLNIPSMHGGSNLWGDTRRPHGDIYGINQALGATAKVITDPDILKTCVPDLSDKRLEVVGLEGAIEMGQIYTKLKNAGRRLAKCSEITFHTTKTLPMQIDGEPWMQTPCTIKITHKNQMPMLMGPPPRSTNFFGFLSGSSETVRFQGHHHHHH

human DGKζ = molecular target: T2, human DGKζ (Homo sapiens, UniProt Q13574); experiment: DGKζ LIPGLO assay (extruded liposome substrate), in vitro DGK inhibition; format: biochemical; conditions: DGKζ liposome (LIPGLO) assay; read-out: DGKz LIPGLO IC50
T2 construct: TVMV protease cleavage site (C); Hexa-His (C); made in house; host or cells: Sf9 insect cells (baculovirus, Bac-to-Bac)
T2 sequence (Q13574 with tags, fused parts or gaps isoform Q13574-4): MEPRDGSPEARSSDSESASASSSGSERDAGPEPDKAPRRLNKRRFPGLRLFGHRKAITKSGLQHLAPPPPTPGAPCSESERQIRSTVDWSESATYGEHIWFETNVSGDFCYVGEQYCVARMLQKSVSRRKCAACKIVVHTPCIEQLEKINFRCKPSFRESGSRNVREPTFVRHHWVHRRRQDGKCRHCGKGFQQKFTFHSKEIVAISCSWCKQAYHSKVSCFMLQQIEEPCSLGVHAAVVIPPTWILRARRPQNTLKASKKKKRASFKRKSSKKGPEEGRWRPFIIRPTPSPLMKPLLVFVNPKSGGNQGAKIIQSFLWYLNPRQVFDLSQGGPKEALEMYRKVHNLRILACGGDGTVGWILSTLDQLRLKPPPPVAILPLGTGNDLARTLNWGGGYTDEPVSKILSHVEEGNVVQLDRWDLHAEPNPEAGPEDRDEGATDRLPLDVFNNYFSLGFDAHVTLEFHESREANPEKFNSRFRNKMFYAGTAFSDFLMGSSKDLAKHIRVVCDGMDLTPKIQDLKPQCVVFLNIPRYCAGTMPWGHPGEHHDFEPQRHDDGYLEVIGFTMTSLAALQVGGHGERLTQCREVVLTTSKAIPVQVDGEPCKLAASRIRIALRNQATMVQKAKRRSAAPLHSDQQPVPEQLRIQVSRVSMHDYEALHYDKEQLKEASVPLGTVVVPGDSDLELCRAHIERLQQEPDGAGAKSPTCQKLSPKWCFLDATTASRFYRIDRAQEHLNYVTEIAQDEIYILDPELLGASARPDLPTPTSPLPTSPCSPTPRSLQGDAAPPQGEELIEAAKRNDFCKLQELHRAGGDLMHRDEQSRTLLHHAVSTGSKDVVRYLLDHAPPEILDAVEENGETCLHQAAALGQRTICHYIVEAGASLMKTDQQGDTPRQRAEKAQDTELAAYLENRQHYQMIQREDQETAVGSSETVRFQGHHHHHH

Human venous whole blood = experiment: Human whole blood IFN-γ assay; format: cell-based; conditions: human whole blood, anti-CD3 plus anti-CD28, 24 hours, 3 μM reference compound = 100% activation, read-out: INFg Whole Blood Normalized Agonist EC50;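 note: blood from healthy donors exposed to compound for 1 h before stimulation with anti-CD3 and anti-CD28 at 1 µg/mL each, IFN-γ quantified in supernatant by AlphaLISA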
Method: Human Whole Blood IFN-γ Assay
Human venous whole blood (22.5 μL per well), obtained from healthy donors, was pre-treated with compounds for one hour at 37° C. in a humidified 95% air/5% CO2 incubator. The blood was stimulated with 2.5 μL anti-human CD3 and anti-CD28 mAb at a final concentration of 1 μg/mL each for 24 hours at 37° C. IFN-γ in the supernatants was measured using AlphLISA kit (Cat # AL217).

Structure (SMILES)	IC50 (human DGKα)	IC50 (human DGKζ)	EC50 (Human venous whole blood)	EC50 (Human venous whole blood; Homo sapiens, 24 h)
C[C@@H]1CN(c2c(C#N)c(=O)n(C)c3ccc(C#N)nc23)[C@@H](C)CN1C(c1ccccc1)c1ccc(Cl)cc1 (stereo partly drawn) [Example 834]	22000 nM	6000 nM	3600 nM	
C[C@@H]1CN(c2c(C#N)c(=O)n(C)c3ccc(C#N)nc23)[C@@H](C)CN1C(c1ccccc1)c1ccc(Cl)cc1 (stereo partly drawn) [Example 835]	11000 nM	11000 nM	20000 nM	
C[C@@H]1CN(c2c(C#N)c(=O)n(C)c3ccc(C#N)nc23)[C@@H](C)CN1C(c1ccc(F)cc1)c1cnn(C)c1 (stereo partly drawn) [Example 846]	12000 nM	8600 nM		5100 nM
C[C@@H]1CN(c2c(C#N)c(=O)n(C)c3ccc(C#N)nc23)[C@@H](C)CN1C(c1ccc(F)cc1)c1cnn(C)c1 (stereo partly drawn) [Example 847]	22000 nM	7400 nM	5000 nM	
C[C@@H]1CN(c2c(C#N)c(=O)n(C)c3ccc(C#N)nc23)[C@@H](C)CN1C(c1ccc(F)cc1)c1cncn1C (stereo partly drawn) [Example 848]	230000 nM	100000 nM		20000 nM
C[C@@H]1CN(c2c(C#N)c(=O)n(C)c3ccc(C#N)nc23)[C@@H](C)CN1C(c1ccc(F)cc1)c1cncn1C (stereo partly drawn) [Example 849]	> 250000 nM	130000 nM	20000 nM	
Cc1ccc(C(c2ccc(C)cc2)N2CCN(c3c(C#N)c(=O)n(C)c4ccc(C#N)nc34)C[C@H]2C)cc1 [Example 870]	2500 nM	310 nM		1400 nM
CCc1ccccc1C(c1ccc(F)cc1)N1CCN(c2c(C#N)c(=O)n(C)c3ccc(C#N)nc23)C[C@H]1C (stereo partly drawn) [Example 876]	2400 nM	510 nM	2200 nM	
CCc1ccccc1C(c1ccc(F)cc1)N1CCN(c2c(C#N)c(=O)n(C)c3ccc(C#N)nc23)C[C@H]1C (stereo partly drawn) [Example 877]	5100 nM	240 nM	6000 nM	
C[C@@H]1CN(c2c(C#N)c(=O)n(C)c3ccc(C#N)nc23)CCN1C(c1ccc(F)cc1)c1cccc(F)c1 (stereo partly drawn) [Example 880]	6500 nM	2500 nM	20000 nM	
C[C@@H]1CN(c2c(C#N)c(=O)n(C)c3ccc(C#N)nc23)CCN1C(c1ccc(F)cc1)c1cccc(F)c1 (stereo partly drawn) [Example 881]	5300 nM	3000 nM	2100 nM	
C[C@@H]1CN(c2c(C#N)c(=O)n(C)c3ccc(C#N)nc23)CCN1C(c1ccc(F)cc1)c1ccccc1F (stereo partly drawn) [Example 882]	820 nM	960 nM	1700 nM	
C[C@@H]1CN(c2c(C#N)c(=O)n(C)c3ccc(C#N)nc23)CCN1C(c1ccc(F)cc1)c1ccccc1F (stereo partly drawn) [Example 883]	1500 nM	840 nM	830 nM	
CCc1ccc(C(c2ccc(F)cc2)N2CCN(c3c(C#N)c(=O)n(C)c4ccc(C#N)nc34)C[C@H]2C)cc1 (stereo partly drawn) [Example 884]	4600 nM	2400 nM		2200 nM
CCc1ccc(C(c2ccc(F)cc2)N2CCN(c3c(C#N)c(=O)n(C)c4ccc(C#N)nc34)C[C@H]2C)cc1 (stereo partly drawn) [Example 885]	3000 nM	1200 nM	2400 nM	
Cc1ccc(C(c2ccc(F)cc2)N2CCN(c3c(C#N)c(=O)n(C)c4ccc(C#N)nc34)C[C@H]2C)cc1 (stereo partly drawn) [Example 888]	510 nM	330 nM		1200 nM
Cc1ccc(C(c2ccc(F)cn2)N2CCN(c3c(C#N)c(=O)n(C)c4ccc(C#N)nc34)C[C@H]2C)cc1 (stereo partly drawn) [Example 898]	340 nM	700 nM	480 nM	
Cc1ccc(C(c2ccc(F)cn2)N2CCN(c3c(C#N)c(=O)n(C)c4ccc(C#N)nc34)C[C@H]2C)cc1 (stereo partly drawn) [Example 899]	630 nM	1700 nM	990 nM	
C[C@@H]1CN(c2c(C#N)c(=O)n(C)c3ccc(C#N)nc23)CCN1C(c1ccc(F)cc1)c1ccc(F)cn1 (stereo partly drawn) [Example 902]	250 nM	2600 nM	2200 nM	
Cc1cccc(C(c2ccc(F)cc2)N2CCN(c3c(C#N)c(=O)n(C)c4ccc(C#N)nc34)C[C@H]2C)c1 (stereo partly drawn) [Example 917]	6100 nM	700 nM	850 nM	
C[C@@H]1CN(c2c(C#N)c(=O)n(C)c3ccc(C#N)nc23)CCN1C(c1cccc(Cl)c1)c1ccc(F)cn1 (stereo partly drawn) [Example 926]	2500 nM	4000 nM		1200 nM
C[C@@H]1CN(c2c(C#N)c(=O)n(C)c3ccc(C#N)nc23)CCN1C(c1ccc(Cl)cc1)c1ccc(Cl)cn1 (stereo partly drawn) [Example 930]	640 nM	1300 nM		1300 nM
C[C@@H]1CN(c2c(C#N)c(=O)n(C)c3ccc(C#N)nc23)CCN1C(c1ccc(F)cc1)c1ccc(F)cc1F (stereo partly drawn) [Example 946]	590 nM	730 nM		680 nM
CC(c1ccc(C#N)cc1)N1CCN(c2c(C#N)c(=O)n(C)c3ccc(C#N)nc23)C[C@H]1C (stereo partly drawn) [Example 954]	130 nM	6500 nM		20000 nM
